Consider 24 molecules from US7109193B2, “Tricyclic diazepines tocolytic oxytocin receptor antagonists” (Wyeth, priority 2001, dated 2006).

The target in the first assay is T1, human vasopressin V1a receptor subtype (Homo sapiens, UniProt P37288).
T1 construct: host or cells: CHO cells (pZeoSV vector for the Thibonnier line)
T1 sequence (P37288 whole entry): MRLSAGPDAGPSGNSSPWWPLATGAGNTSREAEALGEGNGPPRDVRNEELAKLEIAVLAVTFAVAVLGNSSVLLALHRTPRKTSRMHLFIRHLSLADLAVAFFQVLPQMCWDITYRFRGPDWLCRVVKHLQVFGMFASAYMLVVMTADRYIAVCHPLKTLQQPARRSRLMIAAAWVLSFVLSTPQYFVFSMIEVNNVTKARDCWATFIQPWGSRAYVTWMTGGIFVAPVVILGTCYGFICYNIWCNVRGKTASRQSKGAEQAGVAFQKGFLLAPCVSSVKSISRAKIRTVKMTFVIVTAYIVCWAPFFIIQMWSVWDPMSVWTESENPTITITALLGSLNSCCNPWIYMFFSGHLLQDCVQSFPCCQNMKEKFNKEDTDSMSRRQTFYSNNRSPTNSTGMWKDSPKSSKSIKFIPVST
As to the kind of experiment: Vasopressin binding in Chinese Hamster Ovary cell membranes expressing human vasopressin V1a subtype receptors. The settings on record: 100 nM, CHO cell membranes, [3H]Manning ligand, values without parentheses. Put shortly:
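Membranes from CHO cells expressing human V1a receptor were incubated with [3H]Manning ligand (added as 20 μL of 8 nM) in pH 7.4 Tris buffer with MgCl2, BSA and protease inhibitors, 60 min at room temperature. Bound radioactivity was counted after filtration; values are percent inhibition at a stated concentration or IC50.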
In general, inhibition refers to the percentage by which the read-out fell short of the control. Consider `COc1cc(C(=O)N2Cc3ccc(C(=O)NCCCN(C)C)n3Cc3ccccc32)ccc1-c1cccc2ccccc12` [Example 80, N-[3-(Dimethylamino)propyl]-10-[3-methoxy-4-(1-naphthyl)benzoyl]-10,11-dihydro-5H-pyrrolo[2,1-c][1,4]benzodiazepine-3-carboxamide], for which the inhibition at 0.1 µM is 16%.
For the molecule `COc1ccccc1-c1ccc(C(=O)N2Cc3ccc(C(=O)N(C)CCN(C)C)n3Cc3ccccc32)cc1` [Example 90, N-[2-(Dimethylamino)ethyl]-10-[(2′-methoxy[1,1′-biphenyl]-4-yl)carbonyl]-N-methyl-10,11-dihydro-5H-pyrrolo[2,1-c][1,4]benzodiazepine-3-carboxamide], the inhibition at 0.1 µM worked out at 63%.
On to `COc1cccc(-c2ccc(C(=O)N3Cc4ccc(C(=O)N(C)CCN(C)C)n4Cc4ccccc43)cc2OC)c1` [Example 95, 10-[(2,3′-Dimethoxy[1,1′-biphenyl]-4-yl)carbonyl]-N-[2-(dimethylamino)ethyl]-N-methyl-10,11-dihydro-5H-pyrrolo[2,1-c][1,4]benzodiazepine-3-carboxamide], for which the inhibition at 0.1 µM turned out to be 68%.
In the case of `COc1cccc(-c2ccc(C(=O)N3Cc4ccc(C(=O)N(C)CCN(C)C)n4Cc4ccccc43)cc2C)c1` [Example 89, N-[2-(Dimethylamino)ethyl]-10-[(3′-methoxy-2-methyl[1,1′-biphenyl]-4-yl)carbonyl]-N-methyl-10,11-dihydro-5H-pyrrolo[2,1-c][1,4]benzodiazepine-3-carboxamide], the inhibition at 0.1 µM was found to be 50%.
As for `COc1cccc(-c2ccc(C(=O)N3Cc4ccc(C(=O)NCCCN(C)C)n4Cc4ccccc43)cc2OC)c1` [Example 82, 10-[(2,3′-Dimethoxy[1,1′-biphenyl]-4-yl)carbonyl]-N-[3-(dimethylamino)propyl]-10,11-dihydro-5H-pyrrolo[2,1-c][1,4]benzodiazepine-3-carboxamide], the inhibition at 0.1 µM was 37%.
For `COc1cccc(-c2ccc(C(=O)N3Cc4ccc(C(=O)N(C)CCCN(C)C)n4Cc4ccccc43)cc2C)c1` [Example 102, N-[3-(Dimethylamino)propyl]-10-[(3′-methoxy-2-methyl[1,1′-biphenyl]-4-yl)carbonyl]-N-methyl-10,11-dihydro-5H-pyrrolo[2,1-c][1,4]benzodiazepine-3-carboxamide], the inhibition at 0.1 µM was determined as 45%.

The same assay, now with this note: CHO cell membranes, [3H]Manning ligand, values in parentheses.
Usually IC50 stands for the concentration that gives 50% inhibition. On to `COc1cc(-c2ccccc2C)c(Cl)cc1C(=O)N1Cc2ccc(C(=O)N3CCC(N4CCCC4)CC3)n2Cc2ccccc21` [Example 136, {10-[(6-Chloro-3-methoxy-2′-methyl[1,1′-biphenyl]-4-yl)carbonyl]-10,11-dihydro-5H-pyrrolo[2,1-c][1,4]benzodiazepin-3-yl}[4-(1-pyrrolidinyl)-1-piperidinyl]methanone], for which the concentration for half-maximal inhibition (IC50) is 538 nM.
In the case of `COc1cccc(-c2cc(OC)c(C(=O)N3Cc4ccc(C(=O)N(C)CCN(C)C)n4Cc4ccccc43)cc2Cl)c1` [Example 87, 10-[(6-Chloro-3,3′-dimethoxy[1,1′-biphenyl]-4-yl)carbonyl]-N-[2-(dimethylamino)ethyl]-N-methyl-10,11-dihydro-5H-pyrrolo[2,1-c][1,4]benzodiazepine-3-carboxamide], the IC50 turned out to be 349 nM.
As to `Cc1cc(C(=O)N2Cc3ccc(C(=O)N4CCN(CCN(C)C)CC4)n3Cc3ccccc32)ccc1-c1ccccc1C(F)(F)F` [Example 196, {4-[2-(Dimethylamino)ethyl]-1-piperazinyl}(10-{[2-methyl-2′-(trifluoromethyl)[1,1′-biphenyl]-4-yl]carbonyl}-10,11-dihydro-5H-pyrrolo[2,1-c][1,4]benzodiazepin-3-yl)methanone], the IC50 turned out to be 1240 nM.
On to `COc1cc(-c2ccccc2C)c(Cl)cc1C(=O)N1Cc2ccc(C(=O)N3CCN(CCN(C)C)CC3)n2Cc2ccccc21` [Example 197, {10-[(6-Chloro-3-methoxy-2′-methyl[1,1′-biphenyl]-4-yl)carbonyl]-10,11-dihydro-5H-pyrrolo[2,1-c][1,4]benzodiazepin-3-yl}{4-[2-(dimethylamino)ethyl]-1-piperazinyl}methanone], for which the IC50 was found to be 524 nM.
The same measure, in the same setting: for `COc1cccc(-c2ccc(C(=O)N3Cc4ccc(C(=O)N5CC[C@@H](N(C)C)C5)n4Cc4ccccc43)cc2C)c1` [Example 278, [(3R)-3-(Dimethylamino)pyrrolidinyl]{10-[(3′-methoxy-2-methyl[1,1′-biphenyl]-4-yl)carbonyl]-10,11-dihydro-5H-pyrrolo[2,1-c][1,4]benzodiazepin-3-yl}methanone] the value was 303 nM; for `COc1ccccc1-c1ccc(C(=O)N2Cc3ccc(C(=O)N4CCN(CCN(C)C)CC4)n3Cc3ccccc32)cc1C` [Example 195, {4-[2-(Dimethylamino)ethyl]-1-piperazinyl}{10-[(2′-methoxy-2-methyl[1,1′-biphenyl]-4-yl)carbonyl]-10,11-dihydro-5H-pyrrolo[2,1-c][1,4]benzodiazepin-3-yl}methanone], 367 nM.
For `COc1ccccc1-c1ccc(C(=O)N2Cc3ccc(C(=O)N4CCCN(C)CC4)n3Cc3ccccc32)cc1` [Example 61, {10-[(2′-Methoxy[1,1′-biphenyl]-4-yl)carbonyl]-10,11-dihydro-5H-pyrrolo[2,1-c][1,4]benzodiazepin-3-yl}(4-methyl-1,4-diazepan-1-yl)methanone], the concentration for half-maximal inhibition (IC50) is 316 nM.
Same read-out and setting: for `Cc1cc(C(=O)N2Cc3ccc(C(=O)N4CCC[C@H]4CN4CCCC4)n3Cc3ccccc32)ccc1-c1ccccc1C(F)(F)F` [Example 258, (10-{[2-Methyl-2′-(trifluoromethyl)[1,1′-biphenyl]-4-yl]carbonyl}-10,11-dihydro-5H-pyrrolo[2,1-c][1,4]benzodiazepin-3-yl)[(2S)-2-(1-pyrrolidinylmethyl)pyrrolidinyl]methanone] the value was 913 nM; for `COc1cc(-c2ccccc2C)c(Cl)cc1C(=O)N1Cc2ccc(C(=O)N3CCCN(C)CC3)n2Cc2ccccc21` [Example 60, {10-[(6-Chloro-3-methoxy-2′-methyl[1,1′-biphenyl]-4-yl)carbonyl]-10,11-dihydro-5H-pyrrolo[2,1-c][1,4]benzodiazepin-3-yl}(4-methyl-1,4-diazepan-1-yl)methanone], 681 nM; for `COc1ccccc1-c1ccc(C(=O)N2Cc3ccc(C(=O)N4CCN(CCCN(C)C)CC4)n3Cc3ccccc32)cc1C` [Example 245, {4-[3-(Dimethylamino)propyl]-1-piperazinyl}{10-[(2′-methoxy-2-methyl[1,1′-biphenyl]-4-yl)carbonyl]-10,11-dihydro-5H-pyrrolo[2,1-c][1,4]benzodiazepin-3-yl}methanone], 933 nM.
On the same count and under the same terms, for `COc1cc(-c2ccccc2C)c(Cl)cc1C(=O)N1Cc2ccc(C(=O)N3CCN(C)CC3)n2Cc2ccccc21` [Example 47, {10-[(6-Chloro-3-methoxy-2′-methyl[1,1′-biphenyl]-4-yl)carbonyl]-10,11-dihydro-5H-pyrrolo[2,1-c][1,4]benzodiazepin-3-yl}(4-methyl-1-piperazinyl)methanone] the value was 1000 nM; for `COc1ccccc1-c1ccc(C(=O)N2Cc3ccc(C(=O)N4CCN(C)CC4)n3Cc3ccccc32)cc1` [Example 48, {10-[(2′-Methoxy[1,1′-biphenyl]-4-yl)carbonyl]-10,11-dihydro-5H-pyrrolo[2,1-c][1,4]benzodiazepin-3-yl}(4-methyl-1-piperazinyl)methanone], 484 nM.
For `C=CCN1CCN(C(=O)c2ccc3n2Cc2ccccc2N(C(=O)c2ccc(-c4ccccc4C)c(C)c2)C3)CC1` [Example 220, (4-Allyl-1-piperazinyl){10-[(2,2′-dimethyl[1,1′-biphenyl]-4-yl)carbonyl]-10,11-dihydro-5H -pyrrolo[2,1-c][1,4]benzodiazepin-3-yl}methanone], the IC50 is 387 nM.
The same measure, in the same setting: for `COc1cc(-c2ccccc2C)c(Cl)cc1C(=O)N1Cc2ccc(C(=O)N3CCC(N4CCCCC4)CC3)n2Cc2ccccc21` [Example 110, {10-[(6-Chloro-3-methoxy-2′-methyl[1,1′-biphenyl]-4-yl)carbonyl]-10,11-dihydro-5H-pyrrolo[2,1-c][1,4]benzodiazepin-3-yl}[4-(1-piperidinyl)-1-piperidinyl]methanone] the value was 661 nM.
Same read-out and setting: in the case of `COc1ccccc1-c1ccc(C(=O)N2Cc3ccc(C(=O)N4CCN(CCCN(C)C)CC4)n3Cc3ccccc32)cc1` [Example 246, {4-[3-(Dimethylamino)propyl]-1-piperazinyl}{10-[(2′-methoxy[1,1′-biphenyl]-4-yl)carbonyl]-10,11-dihydro-5H-pyrrolo[2,1-c][1,4]benzodiazepin-3-yl}methanone] it was 373 nM; in that of `COc1cc(-c2ccccc2C)c(Cl)cc1C(=O)N1Cc2ccc(C(=O)N(C)CCN(C)C)n2Cc2ccccc21` [Example 86, 10-[(6-Chloro-3-methoxy-2′-methyl[1,1′-biphenyl]-4-yl)carbonyl]-N-[2-(dimethylamino)ethyl]-N-methyl-10,11-dihydro-5H-pyrrolo[2,1-c][1,4]benzodiazepine-3-carboxamide], 172 nM; in that of `COc1cccc(-c2cc(OC)c(C(=O)N3Cc4ccc(C(=O)N(C)CCCN(C)C)n4Cc4ccccc43)cc2Cl)c1` [Example 99, 10-[(6-Chloro-3,3′-dimethoxy[1,1′-biphenyl]-4-yl)carbonyl]-N-[3-(dimethylamino)propyl]-N-methyl-10,11-dihydro-5H-pyrrolo[2,1-c][1,4]benzodiazepine-3-carboxamide], 311 nM.
Turning to `COc1cc(-c2ccccc2C)c(Cl)cc1C(=O)N1Cc2ccc(C(=O)N(C)CCCN(C)C)n2Cc2ccccc21` [Example 98, 10-[(6-Chloro-3-methoxy-2′-methyl[1,1′-biphenyl]-4-yl)carbonyl]-N-[3-(dimethylamino)propyl]-N-methyl-10,11-dihydro-5H-pyrrolo[2,1-c][1,4]benzodiazepine-3-carboxamide], the IC50 worked out at 238 nM.
